Measured values: ChEMBL document CHEMBL3301361, “Experimental in vitro DMPK and physicochemical data on a set of publicly disclosed compounds”

Columns and labels:
[1] = in vitro; conditions: SD, HW or BN, rat, plasma
[2] = in vitro; conditions: human, plasma
[3] = in vitro; conditions: mouse, plasma
[4] = in vitro; conditions: hepatocytes
[5] = physchem; conditions: octan-1-ol/water
[6] = in vitro; conditions: Beagle, dog, plasma
[7] = in vitro; conditions: human, hepatocytes
[8] = in vitro; conditions: human
[9] = physchem

Row | fraction unbound at 5 h [1] | fraction unbound at 5 h ([2]; PPB) | fraction unbound at 5 h [3] | logD ([5]; pH 7.4, LogD7.4) | SMILES | other results
1 | 0.0119 | 0.0149 | 0.0139 | – | CCOc1cc(CN2CCC(NC(=O)c3cncc(C)c3)CC2)cc(OCC)c1-c1ccc(F)cc1 | –
2 | 0.119 | 0.17 | 0.137 | 2 | O=c1cc(OCc2ccccc2)ccn1-c1ccc2c(cnn2CCN2CCCC2)c1 | fraction unbound at 5 h [6]: 0.16
3 | 0.262 | 0.289 | 0.17 | 2.7 | CS(=O)(=O)N1CCC(NC(=O)NC23CC4CC(CC(C4)C2)C3)CC1 | –
4 | 0.0313 | 0.0079 | 0.0149 | 3.8 | Cc1ncccc1Oc1ncnc(OC2CCN(C(=O)OC(C)C)CC2)c1C | –
5 | 0.04 | 0.0335 | 0.0079 | – | CN(C)CCC1CCN(c2cc(C(=O)NC[C@H]3CC[C@H](CNC(=O)OC(C)(C)C)CC3)c3ccccc3n2)CC1 | fraction unbound at 5 h [6]: 0.0066
6 | 0.0133 | 0.0139 | 0.0039 | – | CN(C)CCC1CCN(c2cc(C(=O)NC[C@H]3CC[C@H](CNC(=O)OCC(C)(C)C)CC3)c3ccccc3n2)CC1 | –
7 | – | 0.173 | 0.36 | 1.46 | COc1ccc2ncc(F)c(CCN3CCC(NCc4cc5c(cn4)OCCO5)CC3)c2n1 | hepatocyte CLint [4]: 138 µL/min/1e6 cells; fraction unbound at 5 h [6]: 0.0968
8 | 0.0055 | 0.0268 | 0.03 | 2.4 | O=C(Nc1ccc(N2CCNCC2)cc1)c1ccc(-c2ccc(Cl)cc2)o1 | hepatocyte CLint [7]: < 3 µL/min/1e6 cells
9 | 0.101 | 0.11 | 0.0477 | 2.9 | C[C@H](c1nc2ncccc2c(=O)n1-c1ccc(Cl)cc1)N(CC1CCS(=O)(=O)CC1)C(=O)Cc1ccc(C(F)(F)F)c(F)c1 | hepatocyte CLint [4]: 7.08 µL/min/1e6 cells; fraction unbound at 5 h [6]: 0.0544; microsomal CLint ([8]; microsomes): 5.25 µL/min/mg
10 | 0.0014 | 0.0014 | 0.0088 | 2 | Cc1nccc(-c2ccc(-c3nc4ccncc4c(O)c3C#N)cc2)c1Cl | –
11 | 0.266 | 0.0661 | 0.266 | – | O=C(c1c2ccccc2cc2ccccc12)N1CCC(N2CCC[C@@H](C(=O)N3CCOCC3)C2)CC1 | fraction unbound at 5 h [6]: 0.289
12 | – | 0.201 | 0.349 | 3.4 | CO[C@H]1CC[C@]2(CC1)Cc1ccc(OCC(C)C)cc1C21N=C(C)C(N)=N1 (stereo partly specified) | hepatocyte CLint [7]: 7.24 µL/min/1e6 cells
13 | 0.0661 | 0.139 | 0.0209 | 3.4 | CO[C@H]1CC[C@]2(CC1)Cc1ccc(-c3cncc(Br)c3)cc1C21N=C(C)C(N)=N1 (stereo partly specified) | –
14 | – | – | 0.0022 | – | Cc1cccc(-c2ccc(CNC(=O)CCCc3ccc4cccnc4n3)cc2)c1 | hepatocyte CLint [7]: 60.3 µL/min/1e6 cells
15 | – | 0.0008 | 0.0043 | – | FC(F)(F)Oc1ccc(-c2nnc(CCCCc3ccc4cccnc4n3)o2)cc1Cl | hepatocyte CLint [7]: 24.6 µL/min/1e6 cells
16 | 0.0081 | 0.0063 | 0.0095 | – | O=C1COc2nccc(-c3ccccc3F)c2CN1Cc1cc(C(F)(F)F)cc(C(F)(F)F)c1 | –
17 | 0.0008 | 0.148 | 0.0016 | 2.63 | CCOC(=O)C1=C(C)NC(C)=C(C(C)=O)[C@H]1c1cccc2c(=O)cc(C)oc12 | hepatocyte CLint [4]: 105 µL/min/1e6 cells; pKa [9]: 2.22; microsomal CLint ([8]; liver microsomes): > 150 µL/min/mg; hepatocyte CLint [7]: 45.7 µL/min/1e6 cells
18 | – | 0.001 | 0.0009 | 4.3 | CC(C)C[C@H](CO)Nc1nc(S[C@@H](C)c2ccccc2)nc2[nH]c(=O)sc12 | fraction unbound at 5 h [6]: 0.0019
19 | – | 0.0011 | 0.002 | – | CC(C)C[C@H](CO)Nc1nc(S[C@@H](C)c2ccccc2F)nc2nc(N)sc12 | fraction unbound at 5 h [6]: 0.002; hepatocyte CLint [7]: 30.9 µL/min/1e6 cells
20 | 0.0171 | 0.0268 | 0.03 | – | CC1=C(C(=O)OCc2ccccc2)C(c2cccs2)NC(=O)N1 (stereo unspecified) | –
21 | 0.22 | 0.19 | 0.154 | 2.5 | Cc1cc(N2CCC[C@@H]2C(=O)NCCc2ccc3c(c2)OCO3)nc(-n2ccnc2)n1 | microsomal CLint ([8]; liver microsomes): > 150 µL/min/mg

Row | fraction unbound at 5 h [1] | fraction unbound at 5 h ([2]; PPB) | fraction unbound at 5 h [3] | logD ([5]; pH 7.4, LogD7.4) | SMILES | other results
22 | 0.0051 | 0.0034 | 0.0099 | – | COC(=O)N[C@@H](C)C#Cc1cnc(Oc2ccc(OC(C)C)cc2)s1 | –
23 | – | 0.112 | 0.0736 | – | CC(C)Oc1cc(Nc2nc(N[C@@H](C)c3ncc(F)cn3)ncc2Cl)n[nH]1 | fraction unbound at 5 h [6]: 0.204
24 | 0.035 | 0.0801 | 0.0418 | 3.14 | C[C@H](Nc1ncc(F)c(Nc2cc(C3CC3)[nH]n2)n1)c1ccc(F)cn1 | fraction unbound at 5 h [6]: 0.183
25 | 0.009 | 0.0358 | 0.0358 | – | C[C@H](Nc1ncc(Cl)c(Nc2cc(C3CC3)[nH]n2)n1)c1ccc(F)cn1 | fraction unbound at 5 h [6]: 0.11
26 | 0.0801 | 0.0009 | 0.0033 | – | O=C(Nc1ccc(CN2CCNCC2)cc1-c1nc2ccccc2[nH]1)c1cnc2ccccc2n1 | –
27 | 0.201 | 0.16 | 0.19 | 3.3 | c1ccc2[nH]c(CCc3nc4ccccc4[nH]3)nc2c1 | –
28 | 0.0428 | 0.0262 | 0.0661 | – | c1ccc2c(c1)CC(N1CCN(c3cccc4c3OCCO4)CC1)C2 | –
29 | – | – | 0.0063 | – | N#Cc1c(O)c2c(-c3ccc(-c4ccccc4O)cc3)csc2[nH]c1=O | hepatocyte CLint [4]: 52.5 µL/min/1e6 cells; microsomal CLint ([8]; liver microsomes): < 3 µL/min/mg
30 | 0.0836 | 0.0209 | 0.0736 | – | Cc1ncsc1C(=O)N(Cc1cc(=O)[nH]c2c(F)cccc12)c1cccc(Cl)c1 | –
31 | 0.0011 | 0.0014 | 0.0013 | – | O=C(CN1CCN(Cc2ccn(-c3ccc(C(F)(F)F)cn3)c2)CC1)NC(c1ccc(F)cc1)c1ccc(F)cc1 | fraction unbound at 5 h [6]: 0.0006
32 | 0.0106 | 0.0074 | 0.0111 | – | CC(C)[C@H](C(=O)Nc1nccs1)c1ccc(Cl)cc1 | hepatocyte CLint [7]: 12 µL/min/1e6 cells
33 | 0.0061 | 0.0055 | 0.0059 | – | CS(=O)(=O)Nc1ccc2[nH]c(Cc3ccc(Oc4ccccc4)cc3)nc2c1 | –
34 | 0.0015 | 0.0017 | 0.0019 | – | COc1ccc(Cl)cc1C1(F)C(=O)Nc2cc(C(F)(F)F)ccc21 (stereo unspecified) | –
35 | 0.0007 | 0.0752 | 0.0007 | 2.51 | CCOc1ncc(C)c2c1[C@H](c1ccc(C#N)cc1OC)C(C(N)=O)=C(C)N2 [FINERENONE] | hepatocyte CLint [4]: 26.9 µL/min/1e6 cells; microsomal CLint ([8]; microsomes): 97.7 µL/min/mg
36 | 0.0021 | 0.0009 | 0.0069 | – | Cc1cnc(C(=O)c2ncnc3[nH]ccc23)c(NS(=O)(=O)c2ccc(Cl)c(C(F)(F)F)c2)c1 [ILACIRNON] | –
37 | 0.101 | 0.004 | 0.179 | – | O=C1N(c2ccccc2)c2ccccc2C1(Cc1ccncc1)Cc1ccncc1 [LINOPIRDINE] | –
38 | – | 0.46 | 0.671 | 0.8 | C[C@@]1(c2cc(-c3cncnc3)c(F)cc2F)CCSC(N)=N1 [LY-2811376] | fraction unbound at 5 h [6]: 0.629
39 | 0.0366 | 0.0606 | 0.016 | 2.9 | CC(C)(F)C[C@H](N[C@@H](c1ccc(-c2ccc(S(C)(=O)=O)cc2)cc1)C(F)(F)F)C(=O)NC1(C#N)CC1 [ODANACATIB] | –
40 | 0.19 | 0.232 | 0.262 | – | C[C@@H]1CN(C(=O)[C@@H]2CN(C(C)(C)C)C[C@H]2c2ccc(F)cc2F)C[C@H](C)[C@@]1(O)c1ccccc1 [PF-00446687] | hepatocyte CLint [7]: 25.1 µL/min/1e6 cells
41 | 0.0149 | 0.0149 | 0.0268 | – | CC1(CCCc2cc(=O)oc3[nH]c(=O)[nH]c(=O)c23)CC1 [SCH-900271] | hepatocyte CLint [4]: 42.7 µL/min/1e6 cells; microsomal CLint ([8]; liver microsomes): < 3 µL/min/mg; hepatocyte CLint [7]: < 3 µL/min/1e6 cells
42 | 0.78 | 0.768 | 0.711 | 0.31 | N[C@@H](CC(=O)N1CCn2c(nnc2C(F)(F)F)C1)Cc1cc(F)c(F)cc1F [SITAGLIPTIN] | –

Row | SMILES | fraction unbound at 5 h [1] | fraction unbound at 5 h ([2]; PPB) | fraction unbound at 5 h [3] | logD ([5]; pH 7.4, LogD7.4) | other results
43 | Cc1ccccc1-n1c(Cn2cnc3c(N)ncnc32)nc2cccc(C)c2c1=O | 0.24 | – | 0.0801 | – | fraction unbound at 5 h [2]: 0.0136; hepatocyte CLint [4]: 24 µL/min/1e6 cells; logD ([5]; pH 7.4): 2.6
44 | CC(C)NC[C@@H](O)COc1cccc2ccccc12 [DEXPROPRANOLOL] | 0.179 | – | 0.179 | – | fraction unbound at 5 h [2]: 0.176
45 | CN(C)C(=O)C(CCN1CCC(O)(c2ccc(Cl)cc2)CC1)(c1ccccc1)c1ccccc1 [LOPERAMIDE] | 0.0544 | – | 0.0358 | – | fraction unbound at 5 h [2]: 0.0736; pKa [9]: 9.14; logD ([5]; pH 7.4): 3.47
46 | CCc1c(C(=O)C(N)=O)c2c(OCC(=O)OC)cccc2n1Cc1ccccc1 [VARESPLADIB METHYL] | – | – | 0.232 | – | hepatocyte CLint [7]: 50.1 µL/min/1e6 cells
47 | CCc1c(C(=O)C(N)=O)c2c(OCC(=O)O)cccc2n1Cc1ccccc1 [VARESPLADIB] | 0.0768 | – | 0.22 | – | fraction unbound at 5 h [2]: 0.124; fraction unbound at 5 h [6]: 0.129
